Measured values reported in ChEMBL document CHEMBL3046627, “Synthesis and in vitro study of antibacterial, antifungal activities of some novel bisquinolines” (2013).
≈ marks a conversion by molar mass, not a printed value. Calls of active or inactive are those of the source. No cut-off for these calls is given here.

What was measured:
[1] = tested on: Bacillus pumilus; assay: Antibacterial activity against Bacillus pumilus 11778 assessed as growth inhibition at MIC after 24 hr by agar dilution method; assay type: functional
[2] = tested on: Pseudomonas aeruginosa; assay: Antibacterial activity against Pseudomonas aeruginosa 71 assessed as growth inhibition at MIC after 24 hr by agar dilution method; assay type: functional
[3] = tested on: Vibrio cholerae; assay: Antibacterial activity against Vibrio cholerae 759 assessed as growth inhibition at MIC after 24 hr by agar dilution method; assay type: functional
[4] = tested on: Klebsiella pneumoniae; assay: Antibacterial activity against Klebsiella pneumoniae J/I/4 assessed as growth inhibition at MIC after 24 hr by agar dilution method; assay type: functional
[5] = tested on: Klebsiella pneumoniae; assay: Antibacterial activity against Klebsiella pneumoniae J/I/4 assessed as growth inhibition at MIC; assay type: functional, organism-based; settings: TDE = time-dependent effect
[6] = tested on: Klebsiella pneumoniae; assay: Antibacterial activity against Klebsiella pneumoniae J/I/4 assessed as cell wall deformation at MIC after 24 hr by scanning electron microscopic analysis relative to untreated control; assay type: functional, organism-based
[7] = tested on: Klebsiella pneumoniae; assay: Antibacterial activity against Klebsiella pneumoniae J/I/4 assessed as cell agglomeration at MIC after 24 hr by scanning electron microscopic analysis relative to untreated control; assay type: functional, organism-based
[8] = tested on: Aspergillus niger; assay: Antifungal activity against Aspergillus niger assessed as growth inhibition after 96 hr by agar dilution method; assay type: functional
[9] = tested on: Candida albicans; assay: Antifungal activity against Candida albicans assessed as growth inhibition after 96 hr by agar dilution method; assay type: functional
[10] = tested on: Candida tropicalis; assay: Antifungal activity against Candida tropicalis assessed as growth inhibition after 96 hr by agar dilution method; assay type: functional
[11] = tested on: Cryptococcus neoformans; assay: Antifungal activity against Cryptococcus neoformans assessed as growth inhibition after 96 hr by agar dilution method; assay type: functional
[12] = tested on: Staphylococcus aureus; assay: Antibacterial activity against Staphylococcus aureus 29737 assessed as growth inhibition after 24 hr by agar dilution method; assay type: functional; settings: Staphylococcus aureus, 29737, 24 h
[13] = tested on: Shigella dysenteriae; assay: Antibacterial activity against Shigella dysenteriae 15 assessed as growth inhibition after 24 hr by agar dilution method; assay type: functional; settings: Shigella dysenteriae, 15, 24 h
[14] = tested on: Micrococcus luteus; assay: Antibacterial activity against Micrococcus luteus ATCC 9341 assessed as growth inhibition after 24 hr by agar dilution method; assay type: functional; settings: ATCC 9341, 24 h
[15] = tested on: Escherichia coli; assay: Antibacterial activity against Escherichia coli 319 assessed as growth inhibition after 24 hr by agar dilution method; assay type: functional; settings: Escherichia coli, 319, 24 h
[16] = tested on: Bacillus pumilus; assay: Antibacterial activity against Bacillus pumilus 11778 assessed as growth inhibition after 24 hr by agar dilution method; assay type: functional; settings: Bacillus pumilus, 11778, 24 h
[17] = tested on: Pseudomonas aeruginosa; assay: Antibacterial activity against Pseudomonas aeruginosa 71 assessed as growth inhibition after 24 hr by agar dilution method; assay type: functional; settings: Pseudomonas aeruginosa, 71, 24 h
[18] = tested on: Vibrio cholerae; assay: Antibacterial activity against Vibrio cholerae 759 assessed as growth inhibition after 24 hr by agar dilution method; assay type: functional; settings: Vibrio cholerae, 759, 24 h
[19] = tested on: Klebsiella pneumoniae; assay: Antibacterial activity against Klebsiella pneumoniae J/I/4 assessed as growth inhibition after 24 hr by agar dilution method; assay type: functional; settings: J/I/4, 24 h
[20] = tested on: Staphylococcus aureus; assay: Antibacterial activity against Staphylococcus aureus 29737 assessed as growth inhibition at MIC after 24 hr by agar dilution method; assay type: functional
[21] = tested on: Shigella dysenteriae; assay: Antibacterial activity against Shigella dysenteriae 15 assessed as growth inhibition at MIC after 24 hr by agar dilution method; assay type: functional
[22] = tested on: Micrococcus luteus; assay: Antibacterial activity against Micrococcus luteus ATCC 9341 assessed as growth inhibition at MIC after 24 hr by agar dilution method; assay type: functional
[23] = tested on: Escherichia coli; assay: Antibacterial activity against Escherichia coli 319 assessed as growth inhibition at MIC after 24 hr by agar dilution method; assay type: functional
[24] = tested on: Aspergillus niger; assay: Antifungal activity against Aspergillus niger assessed as growth inhibition at MIC after 96 hr by agar dilution method; assay type: functional
[25] = tested on: Candida albicans; assay: Antifungal activity against Candida albicans assessed as growth inhibition at MIC after 96 hr by agar dilution method; assay type: functional
[26] = tested on: Candida tropicalis; assay: Antifungal activity against Candida tropicalis assessed as growth inhibition at MIC after 96 hr by agar dilution method; assay type: functional
[27] = tested on: Cryptococcus neoformans; assay: Antifungal activity against Cryptococcus neoformans assessed as growth inhibition at MIC after 96 hr by agar dilution method; assay type: functional
[28] = tested on: Escherichia coli; assay: Antibacterial activity against Escherichia coli 319 assessed as growth inhibition at MIC; assay type: functional, organism-based; settings: TDE = time-dependent effect

| Structure (SMILES) | diameter of the inhibition zone (DIZ) [1] | diameter of the inhibition zone (DIZ) [2] | diameter of the inhibition zone (DIZ) [3] | diameter of the inhibition zone (DIZ) [4] | MIC [8] | MIC [9] | MIC [10] | MIC [11] | MIC [12] | MIC [13] | MIC [14] | MIC [15] | MIC [16] | MIC [17] | MIC [18] | MIC [19] | diameter of the inhibition zone (DIZ) [20] | diameter of the inhibition zone (DIZ) [21] | diameter of the inhibition zone (DIZ) [22] | diameter of the inhibition zone (DIZ) [23] | further results |
| --- | --- | --- | --- | --- | --- | --- | --- | --- | --- | --- | --- | --- | --- | --- | --- | --- | --- | --- | --- | --- | --- |
| Clc1ccc(OCc2cc3ccccc3cc2COc2ccc(Cl)c3cccnc23)c2ncccc12 | 8 mm | inactive | 8 mm | 7 mm | inactive | inactive | inactive | inactive | > 500 µg/mL | > 500 µg/mL | 32 µg/mL (≈ 62.6 µM) | 32 µg/mL (≈ 62.6 µM) | 32 µg/mL (≈ 62.6 µM) | > 500 µg/mL | 128 µg/mL (≈ 250 µM) | 32 µg/mL (≈ 62.6 µM) | 6 mm | inactive | 8 mm | 7.2 mm | growth inhibition (GI) [5]: tde; Activity [6]: Active; Activity [7]: Active |
| c1ccc(COc2cccc3cccnc23)c(COc2cccc3cccnc23)c1 | inactive | 6 mm | inactive | 8 mm | inactive | inactive | inactive | inactive | 32 µg/mL (≈ 81.5 µM) | 32 µg/mL (≈ 81.5 µM) | > 500 µg/mL | > 500 µg/mL | 500 µg/mL (≈ 1270 µM) | > 500 µg/mL | > 500 µg/mL | 32 µg/mL (≈ 81.5 µM) | 7.2 mm | 6.5 mm | 7 mm | inactive | diameter of the inhibition zone (DIZ) [24]: inactive; diameter of the inhibition zone (DIZ) [25]: inactive; diameter of the inhibition zone (DIZ) [26]: inactive; diameter of the inhibition zone (DIZ) [27]: inactive |
| Cc1ccc2cccc(OCc3ccccc3COc3cccc4ccc(C)nc34)c2n1 | 7 mm | inactive | 8 mm | 8 mm | 1000 µg/mL (≈ 2380 µM) | inactive | 2000 µg/mL (≈ 4760 µM) | inactive | 128 µg/mL (≈ 304 µM) | 32 µg/mL (≈ 76.1 µM) | 128 µg/mL (≈ 304 µM) | > 1000 µg/mL | > 500 µg/mL | > 500 µg/mL | 64 µg/mL (≈ 152 µM) | 32 µg/mL (≈ 76.1 µM) | 6 mm | 8 mm | 7 mm | inactive | diameter of the inhibition zone (DIZ) [24]: 9 mm; diameter of the inhibition zone (DIZ) [25]: inactive; diameter of the inhibition zone (DIZ) [26]: 7 mm; diameter of the inhibition zone (DIZ) [27]: inactive |
| Clc1ccc(OCc2ccccc2COc2ccc(Cl)c3cccnc23)c2ncccc12 | 6 mm | 7.5 mm | 7 mm | inactive | 1000 µg/mL (≈ 2170 µM) | 1500 µg/mL (≈ 3250 µM) | 1000 µg/mL (≈ 2170 µM) | inactive | 128 µg/mL (≈ 277 µM) | 64 µg/mL (≈ 139 µM) | 32 µg/mL (≈ 69.4 µM) | 32 µg/mL (≈ 69.4 µM) | 32 µg/mL (≈ 69.4 µM) | 64 µg/mL (≈ 139 µM) | 32 µg/mL (≈ 69.4 µM) | > 500 µg/mL | 7 mm | 6 mm | 6.5 mm | 6.5 mm | growth inhibition (GI) [28]: tde; diameter of the inhibition zone (DIZ) [24]: 7.5 mm; diameter of the inhibition zone (DIZ) [25]: 7 mm; diameter of the inhibition zone (DIZ) [26]: 9 mm; diameter of the inhibition zone (DIZ) [27]: inactive |
